# In patent publication US11912699B2, “Tau-protein targeting compounds and associated” (Arvinas Operations, Inc., priority 2019, dated 2024):
# Molecular target: T1, Tau P301L (Homo sapiens, UniProt P10636, P618L)
# T1 construct: expressed in transfected cells
# Test: In vitro tau degradation assay in CHOK1 Tau P301L cells (sarkosyl insoluble tau, WES)
# Assay type: cell-based
# Conditions: CHO-K1; CHOK1 Tau P301L cells; remaining tau in sarkosyl insoluble pellet; 48 hours with test compound at 1 μM, doxycycline removed for last 24 hours; relative to DMSO doxycycline control; read-out: Tau Protein Degradation effect at 1 μM
# Procedure, shortened: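 T-Rex CHOK1 clone D1 with doxycycline-inducible (1 μg/ml) Tau P301L treated 48 h with compound at 1 μM, doxycycline removed for the final 24 h. Sarkosyl-insoluble tau quantified by WES capillary electrophoresis with Tau1 antibody, expressed relative to DMSO doxycycline control and binned as ≤50% or >50% remaining.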
# T1 sequence (P10636 1-441 isoform P10636-8 P301L): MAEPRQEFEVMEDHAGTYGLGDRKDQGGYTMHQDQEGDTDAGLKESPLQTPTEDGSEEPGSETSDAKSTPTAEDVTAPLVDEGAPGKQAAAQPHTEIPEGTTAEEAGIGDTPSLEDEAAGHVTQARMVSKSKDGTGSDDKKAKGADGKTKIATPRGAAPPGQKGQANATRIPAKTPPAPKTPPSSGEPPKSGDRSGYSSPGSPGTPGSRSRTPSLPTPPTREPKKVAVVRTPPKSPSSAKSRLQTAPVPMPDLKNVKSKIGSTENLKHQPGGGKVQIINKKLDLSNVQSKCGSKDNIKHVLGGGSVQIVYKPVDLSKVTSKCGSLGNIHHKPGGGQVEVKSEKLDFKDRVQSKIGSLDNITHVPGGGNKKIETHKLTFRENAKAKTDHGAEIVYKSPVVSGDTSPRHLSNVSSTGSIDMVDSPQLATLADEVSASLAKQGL
row,SMILES,remaining activity at 1 µM [%]
1,"CC1c2ccc(-c3ccc4c5cnccc5n(C(F)F)c4c3)cc2CCN1CCCCCOc1ccc2c(c1)C(=O)N(C1CCC(=O)NC1=O)C2=O (stereo not drawn) [Compound 603, 5-((5-(6-(5-(difluoromethyl)-5H-pyrido[4,3-b]indol-7-yl)-1-methyl-3,4-dihydroisoquinolin-2(1H)-yl)pentyl)oxy)-2-(2,6-dioxopiperidin-3-yl)isoindoline-1,3-dione]",> 50
2,"O=C1CCC(N2C(=O)c3ccc(N4CCC(CN5CCC(O[C@H]6C[C@H](Oc7ccc8c9cnccc9n(C(F)F)c8c7)C6)CC5)CC4)cc3C2=O)C(=O)N1 (stereo partly drawn) [Compound 605, 5-(4-((4-((1r,3r)-3-((5-(difluoromethyl)-5H-pyrido[4,3-b]indol-7-yl)oxy)cyclobutoxy)piperidin-1-yl)methyl)piperidin-1-yl)-2-(2,6-dioxopiperidin-3-yl)isoindoline-1,3-dione]",< 50
3,"O=C1CCC(N2Cc3nc(N4CCN(CCC5CCN(c6ncc(-c7ccc8c9cnccc9n(C(F)F)c8c7)cc6F)CC5)CC4)ccc3C2=O)C(=O)N1 (stereo not drawn) [Compound 607, 3-(2-(4-(2-(1-(5-(5-(difluoromethyl)-5H-pyrido[4,3-b]indol-7-yl)-3-fluoropyridin-2-yl)piperidin-4-yl)ethyl)piperazin-1-yl)-5-oxo-5,7-dihydro-6H-pyrrolo[3,4-b]pyridin-6-yl)piperidine-2,6-dione]",> 50
4,"CN1CCc2c([nH]c3cc(-c4cnc(N5CCC(CCN6CCN(c7ccc8c(c7)C(=O)N(C7CCC(=O)NC7=O)C8=O)CC6)CC5)c(F)c4)ccc23)C1 (stereo not drawn) [Compound 634, 2-(2,6-dioxopiperidin-3-yl)-5-(4-(2-(1-(3-fluoro-5-(2-methyl-2,3,4,9-tetrahydro-1H-pyrido[3,4-b]indol-7-yl)pyridin-2-yl)piperidin-4-yl)ethyl)piperazin-1-yl)isoindoline-1,3-dione]",< 50
5,CC(C)N(C1CCN(c2ncc(-c3ccc4c5cnccc5n(C(F)F)c4c3)cc2F)CC1)[C@H]1C[C@H](Oc2ccc3c(c2)C(=O)N(C2CCC(=O)NC2=O)C3=O)C1 (stereo partly drawn) [Compound 638],< 50

# Continued, values first:
row,remaining activity at 1 µM [%],SMILES
1,> 50,"O=C1CCC(N2C(=O)c3cc(F)c(N4CCN(CC5CCN(c6ncc(-c7ccc8c9cnccc9n(C(F)F)c8c7)cc6F)CC5)CC4)cc3C2=O)C(=O)N1 (stereo not drawn) [Compound 608, 5-(4-((1-(5-(5-(difluoromethyl)-5H-pyrido[4,3-b]indol-7-yl)-3-fluoropyridin-2-yl)piperidin-4-yl)methyl)piperazin-1-yl)-2-(2,6-dioxopiperidin-3-yl)-6-fluoroisoindoline-1,3-dione]"
2,< 50,"CC(C)(C1CCN(c2ncc(-c3ccc4c5cnccc5n(C(F)F)c4c3)cc2F)CC1)N1CCN(c2ccc3c(c2)C(=O)N(C2CCC(=O)NC2=O)C3=O)CC1 (stereo not drawn) [Compound 609, 5-(4-(2-(1-(5-(5-(difluoromethyl)-5H-pyrido[4,3-b]indol-7-yl)-3-fluoropyridin-2-yl)piperidin-4-yl)propan-2-yl)piperazin-1-yl)-2-(2,6-dioxopiperidin-3-yl)isoindoline-1,3-dione]"
3,< 50,"O=C1CCC(N2C(=O)c3ccc(N4CCN(CCOCCN5CCCc6cc(-c7ccc8c9cnccc9n(C(F)F)c8c7)cc(F)c65)CC4)cc3C2=O)C(=O)N1 (stereo not drawn) [Compound 611, 5-(4-(2-(2-(6-(5-(difluoromethyl)-5H-pyrido[4,3-b]indol-7-yl)-8-fluoro-3,4-dihydroquinolin-1(2H)-yl)ethoxy)ethyl)piperazin-1-yl)-2-(2,6-dioxopiperidin-3-yl)isoindoline-1,3-dione]"
4,> 50,"O=C1CCC(N2C(=O)c3ccc(N4CCN(C5CC6(CCN(c7ncc(-c8ccc9c%10cnccc%10n(C(F)F)c9c8)cc7F)CC6)C5)CC4)cc3C2=O)C(=O)N1 (stereo not drawn) [Compound 613, 5-(4-(7-(5-(5-(difluoromethyl)-5H-pyrido[4,3-b]indol-7-yl)-3-fluoropyridin-2-yl)-7-azaspiro[3.5]nonan-2-yl)piperazin-1-yl)-2-(2,6-dioxopiperidin-3-yl)isoindoline-1,3-dione]"
5,> 50,"O=C1CCC(N2C(=O)c3ccc(N4CCN(CC5CC6(CCN(c7ncc(-c8ccc9c%10cnccc%10n(C(F)F)c9c8)cc7F)CC6)C5)CC4)cc3C2=O)C(=O)N1 (stereo not drawn) [Compound 614, 5-(4-((7-(5-(5-(difluoromethyl)-5H-pyrido[4,3-b]indol-7-yl)-3-fluoropyridin-2-yl)-7-azaspiro[3.5]nonan-2-yl)methyl)piperazin-1-yl)-2-(2,6-dioxopiperidin-3-yl)isindoline-1,3-dione]"
6,< 50,"COc1ccc2nc(/C=C/C=C/c3ccc(OCCOCCOc4ccc5c(c4)C(=O)N(C4CCC(=O)NC4=O)C5=O)nc3)sc2c1 (stereo not drawn) [Compound 626, 2-(2,6-dioxopiperidin-3-yl)-5-(2-(2-((5-((1E,3E)-4-(6-methoxybenzo[d]thiazol-2-yl)buta-1,3-dien-1-yl)pyridin-2-yl)oxy)ethoxy)ethoxy) isoindoline-1,3-dione]"
7,< 50,"COc1ccc2nc(/C=C/C=C/c3ccc(OCCOCCOCCOCCOc4ccc5c(c4)C(=O)N(C4CCC(=O)NC4=O)C5=O)nc3)sc2c1 (stereo not drawn) [Compound 628, 2-(2,6-dioxopiperidin-3-yl)-5-(2-(2-(2-(2-((5-((1E,3E)-4-(6-methoxybenzo[d]thiazol-2-yl)buta-1,3-dien-1-yl)pyridin-2-yl)oxy)ethoxy)ethoxy)ethoxy)ethoxy) isoindoline-1,3-dione]"
8,< 50,"O=C1CCC(N2C(=O)c3ccc(N4CCN(CCC5CCN(Cc6ncc(-c7ccc8c9cnccc9n(C(F)F)c8c7)cc6F)CC5)CC4)cc3C2=O)C(=O)N1 (stereo not drawn) [Compound 632, 5-(4-(2-(1-((5-(5-(difluoromethyl)-5H-pyrido[4,3-b]indol-7-yl)-3-fluoropyridin-2-yl)methyl)piperidin-4-yl)ethyl)piperazin-1-yl)-2-(2,6-dioxopiperidin-3-yl)isoindoline-1,3-dione]"
9,< 50,"O=C1CCC(N2C(=O)c3ccc(N4CCC(CCN5CCN(C6CCN(c7ccc8c9cnccc9n(C(F)F)c8c7)CC6)CC5)CC4)cc3C2=O)C(=O)N1 (stereo not drawn) [Compound 633, 5-(4-(2-(4-(1-(5-(difluoromethyl)-5H-pyrido[4,3-b]indol-7-yl)piperidin-4-yl)piperazin-1-yl)ethyl)piperidin-1-yl)-2-(2,6-dioxopiperidin-3-yl)isoindoline-1,3-dione]"
10,< 50,"COc1cc(N2CCN(CCC3CCN(c4ncc(-c5ccc6c7cnccc7n(C(F)F)c6c5)cc4F)CC3)CC2)cc2c1C(=O)N(C1CCC(=O)NC1=O)C2=O (stereo not drawn) [Compound 635, 6-(4-(2-(1-(5-(5-(difluoromethyl)-5H-pyrido[4,3-b]indol-7-yl)-3-fluoropyridin-2-yl)piperidin-4-yl)ethyl)piperazin-1-yl)-2-(2,6-dioxopiperidin-3-yl)-4-methoxyisoindoline-1,3-dione]"
11,> 50,"O=C1CCC(N2C(=O)c3ccc(OCCC4CCN(C[C@H]5C[C@H](Oc6ncc(-c7ccc8c9cnccc9n(C(F)F)c8c7)cc6F)C5)CC4)cc3C2=O)C(=O)N1 (stereo partly drawn) [Compound 636, 5-(2-(1-(((1r,3r)-3-((5-(5-(difluoromethyl)-5H-pyrido[4,3-b]indol-7-yl)-3-fluoropyridin-2-yl)oxy)cyclobutyl)methyl)piperidin-4-yl)ethoxy)-2-(2,6-dioxopiperidin-3-yl)isoindoline-1,3-dione]"
12,< 50,"O=C1CCC(N2C(=O)c3cc(F)c(N4CCCN(CCC5CCN(c6ncc(-c7ccc8c9cnccc9n(C(F)F)c8c7)cc6F)CC5)CC4)cc3C2=O)C(=O)N1 (stereo not drawn) [Compound 639, 5-(4-(2-(1-(5-(5-(difluoromethyl)-5H-pyrido[4,3-b]indol-7-yl)-3-fluoropyridin-2-yl)piperidin-4-yl)ethyl)-1,4-diazepan-1-yl)-2-(2,6-dioxopiperidin-3-yl)-6-fluoroisoindoline-1,3-dione]"

# Same assay, conditions: CHO-K1; remaining tau protein in sarkosyl insoluble pellet; CHOK1 Tau P301L cells treated 48 hours with test compound at 1 μM, doxycycline removed for the last 24 hours; relative to DMSO doxycycline control; read-out: Tau Protein Degradation effect at 1 μM
row,remaining activity at 1 µM [%],SMILES
1,< 50,"O=C1CCC(N2C(=O)c3cccc(N4CCN(CCC5CCN(c6ncc(-c7ccc8c9cnccc9n(C(F)F)c8c7)cc6F)CC5)CC4)c3C2=O)C(=O)N1 (stereo not drawn) [Compound 594, 4-(4-(2-(1-(5-(5-(difluoromethyl)-5H-pyrido[4,3-b]indol-7-yl)-3-fluoropyridin-2-yl)piperidin-4-yl)ethyl)piperazin-1-yl)-2-(2,6-dioxopiperidin-3-yl)isoindoline-1,3-dione]"
2,< 50,"O=C1CCC(N2C(=O)c3ccc(N4CCN(CCC5CCN(c6ncc(-c7ccc8c9cc(F)cnc9n(C(F)F)c8c7)cc6F)CC5)CC4)cc3C2=O)C(=O)N1 (stereo not drawn) [Compound 597, 5-(4-(2-(1-(5-(9-(difluoromethyl)-3-fluoro-9H-pyrido[2,3-b]indol-7-yl)-3-fluoropyridin-2-yl)piperidin-4-yl)ethyl)piperazin-1-yl)-2-(2,6-dioxopiperidin-3-yl)isoindoline-1,3-dione]"
3,< 50,"O=C1CCC(N2C(=O)c3ccc(N4CCN(CCC5CCN(c6cc7ccn(-c8cc9cc(F)ccc9cn8)c7cn6)CC5)CC4)cc3C2=O)C(=O)N1 (stereo not drawn) [Compound 598, 2-(2,6-dioxopiperidin-3-yl)-5-(4-(2-(1-(1-(6-fluoroisoquinolin-3-yl)-1H-pyrrolo[2,3-c]pyridin-5-yl)piperidin-4-yl)ethyl)piperazin-1-yl)isoindoline-1,3-dione]"
4,< 50,"O=C1CCC(N2C(=O)c3ccc(N4CCN(CCC5CC6(C5)CN(c5ccc(-c7ccc8c(c7)[nH]c7ccncc78)cn5)C6)CC4)cc3C2=O)C(=O)N1 (stereo not drawn) [Compound 599, 5-(4-(2-(2-(5-(5H-pyrido[4,3-b]indol-7-yl)pyridin-2-yl)-2-azaspiro[3.3]heptan-6-yl)ethyl)piperazin-1-yl)-2-(2,6-dioxopiperidin-3-yl)isoindoline-1,3-dione]"
